In the supplement of paper PMC12463676, “Small-molecule dissolution of stress granules by redox modulation benefits ALS models” (Nature Chemical Biology, 2025):

Key:
lipoamide = compound: NC(=O)CCCCC1CCSS1 [lipoamide]; assay: thermal stability z-score vs DMSO; higher = more thermally stabilized by treatment; conditions: HeLa, lipoamide concentration 100 µM
Procedure: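 Cellular thermal proteome profiling in HeLa cells. Cells were treated with 100 µM lipoamide for 1 h, with or without 1 mM arsenate for a further 1 h, then heated to ten temperatures (37-66.3 °C), and soluble protein was quantified by TMT mass spectrometry relative to 0.1% DMSO controls. The thermal stability score (sum of log2 fold changes minus the abundance score) was transformed to a z-score; mean of n = 3 experiments.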

potassium arsenate = compound: O=[As]([O-])(O)O.[K+] [potassium arsenate]; assay: as above; conditions: HeLa; arsenate concentration 1 mM
Procedure: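 Cellular thermal proteome profiling in HeLa cells treated with 1 mM arsenate for 1 h (DMSO pretreatment), heated to ten temperatures (37-66.3 °C). Soluble protein was quantified by TMT mass spectrometry relative to DMSO controls; the thermal stability score was transformed to a z-score; mean of n = 3 experiments.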

[1] = arsenate co-treatment: 1 mM arsenate 1 h
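Also: each temperature applied for 3 min, abundance score taken as mean log2 fold change at the two lowest temperatures, z-score obtained by mean subtraction and division by SD.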

UniProt Q96PQ0, sequence (Q96PQ0 whole entry): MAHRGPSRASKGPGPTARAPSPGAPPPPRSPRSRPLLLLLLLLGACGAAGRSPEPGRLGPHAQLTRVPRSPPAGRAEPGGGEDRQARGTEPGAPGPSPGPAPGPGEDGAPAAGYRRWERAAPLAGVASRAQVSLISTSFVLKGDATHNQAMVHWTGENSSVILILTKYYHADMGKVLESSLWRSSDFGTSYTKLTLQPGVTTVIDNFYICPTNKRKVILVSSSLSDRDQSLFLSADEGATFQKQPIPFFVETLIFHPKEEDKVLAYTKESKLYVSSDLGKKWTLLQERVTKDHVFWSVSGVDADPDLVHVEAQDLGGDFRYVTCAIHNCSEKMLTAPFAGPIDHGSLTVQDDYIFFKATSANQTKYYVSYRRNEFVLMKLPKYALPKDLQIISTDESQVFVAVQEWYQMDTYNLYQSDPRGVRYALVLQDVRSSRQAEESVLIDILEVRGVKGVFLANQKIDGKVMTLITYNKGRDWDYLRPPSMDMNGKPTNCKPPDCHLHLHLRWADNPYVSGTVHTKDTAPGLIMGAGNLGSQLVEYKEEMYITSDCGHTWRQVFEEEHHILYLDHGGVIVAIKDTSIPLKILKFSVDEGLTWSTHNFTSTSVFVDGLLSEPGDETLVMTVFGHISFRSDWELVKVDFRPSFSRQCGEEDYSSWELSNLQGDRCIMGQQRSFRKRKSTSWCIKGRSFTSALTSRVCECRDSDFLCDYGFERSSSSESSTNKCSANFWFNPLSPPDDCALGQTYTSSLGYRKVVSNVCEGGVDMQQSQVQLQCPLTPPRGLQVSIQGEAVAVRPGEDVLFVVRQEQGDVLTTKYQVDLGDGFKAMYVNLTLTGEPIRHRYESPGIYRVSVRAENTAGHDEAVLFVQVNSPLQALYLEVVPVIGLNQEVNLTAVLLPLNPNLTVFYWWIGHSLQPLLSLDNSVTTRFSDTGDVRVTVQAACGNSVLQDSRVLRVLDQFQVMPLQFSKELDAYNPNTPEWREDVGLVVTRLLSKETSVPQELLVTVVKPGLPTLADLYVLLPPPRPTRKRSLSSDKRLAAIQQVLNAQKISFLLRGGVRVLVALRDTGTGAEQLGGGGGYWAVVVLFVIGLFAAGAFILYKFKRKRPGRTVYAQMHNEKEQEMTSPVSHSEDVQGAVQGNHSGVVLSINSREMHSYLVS
UniProt O60271, sequence (O60271 whole entry): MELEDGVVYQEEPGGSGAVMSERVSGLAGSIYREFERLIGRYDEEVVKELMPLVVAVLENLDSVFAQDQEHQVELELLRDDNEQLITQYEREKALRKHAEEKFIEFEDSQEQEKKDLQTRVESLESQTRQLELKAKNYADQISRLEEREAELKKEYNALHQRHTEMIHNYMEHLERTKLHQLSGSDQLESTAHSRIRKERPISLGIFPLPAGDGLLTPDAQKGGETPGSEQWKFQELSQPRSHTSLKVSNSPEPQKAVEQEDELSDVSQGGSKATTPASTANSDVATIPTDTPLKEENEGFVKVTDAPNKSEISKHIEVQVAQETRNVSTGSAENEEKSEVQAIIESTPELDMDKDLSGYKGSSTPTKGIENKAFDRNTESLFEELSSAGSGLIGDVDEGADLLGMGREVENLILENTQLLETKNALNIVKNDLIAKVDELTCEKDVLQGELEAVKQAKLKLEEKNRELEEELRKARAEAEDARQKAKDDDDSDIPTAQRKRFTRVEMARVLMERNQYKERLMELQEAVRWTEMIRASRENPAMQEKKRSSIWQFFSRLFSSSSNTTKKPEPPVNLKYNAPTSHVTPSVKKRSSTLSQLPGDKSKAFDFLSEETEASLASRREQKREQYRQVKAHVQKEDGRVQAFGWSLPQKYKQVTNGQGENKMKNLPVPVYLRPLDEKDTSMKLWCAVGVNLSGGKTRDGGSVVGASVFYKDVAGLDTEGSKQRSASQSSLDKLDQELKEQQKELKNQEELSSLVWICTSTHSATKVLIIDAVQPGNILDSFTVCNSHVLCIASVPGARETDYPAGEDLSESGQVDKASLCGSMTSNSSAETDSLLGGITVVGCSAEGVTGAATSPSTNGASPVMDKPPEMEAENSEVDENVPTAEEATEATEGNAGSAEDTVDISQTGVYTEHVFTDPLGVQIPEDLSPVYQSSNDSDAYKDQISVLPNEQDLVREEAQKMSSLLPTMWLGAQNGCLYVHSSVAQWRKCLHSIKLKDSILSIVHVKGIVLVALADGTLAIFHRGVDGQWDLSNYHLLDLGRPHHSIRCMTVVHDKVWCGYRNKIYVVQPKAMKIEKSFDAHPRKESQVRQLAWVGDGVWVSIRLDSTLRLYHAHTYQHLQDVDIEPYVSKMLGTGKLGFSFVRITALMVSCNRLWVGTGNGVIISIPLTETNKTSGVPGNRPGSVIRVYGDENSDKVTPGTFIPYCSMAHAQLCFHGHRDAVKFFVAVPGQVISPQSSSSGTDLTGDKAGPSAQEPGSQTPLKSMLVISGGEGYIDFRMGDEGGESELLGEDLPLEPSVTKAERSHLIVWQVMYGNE
UniProt Q15005, sequence (Q15005 whole entry): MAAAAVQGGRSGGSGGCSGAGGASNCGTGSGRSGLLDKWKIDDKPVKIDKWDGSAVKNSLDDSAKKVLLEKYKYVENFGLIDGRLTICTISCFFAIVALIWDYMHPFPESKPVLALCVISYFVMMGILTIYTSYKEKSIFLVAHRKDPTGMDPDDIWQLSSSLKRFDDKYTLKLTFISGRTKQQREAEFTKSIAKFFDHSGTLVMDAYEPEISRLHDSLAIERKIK
UniProt O75391, sequence (O75391 whole entry): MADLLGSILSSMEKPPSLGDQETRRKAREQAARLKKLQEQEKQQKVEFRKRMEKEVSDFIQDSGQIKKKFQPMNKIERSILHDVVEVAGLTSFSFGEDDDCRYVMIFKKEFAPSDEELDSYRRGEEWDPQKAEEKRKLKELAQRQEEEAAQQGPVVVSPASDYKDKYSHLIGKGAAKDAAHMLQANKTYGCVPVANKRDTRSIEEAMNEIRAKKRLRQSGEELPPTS
UniProt Q9Y657, sequence (Q9Y657 whole entry): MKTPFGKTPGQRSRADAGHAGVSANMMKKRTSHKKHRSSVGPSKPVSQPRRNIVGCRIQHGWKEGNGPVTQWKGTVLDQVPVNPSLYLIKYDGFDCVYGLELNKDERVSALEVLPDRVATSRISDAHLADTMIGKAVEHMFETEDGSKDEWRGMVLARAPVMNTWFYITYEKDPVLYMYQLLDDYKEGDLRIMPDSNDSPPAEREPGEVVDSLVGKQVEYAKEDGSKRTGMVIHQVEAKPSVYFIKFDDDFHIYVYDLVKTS
UniProt P08047, sequence (P08047 whole entry): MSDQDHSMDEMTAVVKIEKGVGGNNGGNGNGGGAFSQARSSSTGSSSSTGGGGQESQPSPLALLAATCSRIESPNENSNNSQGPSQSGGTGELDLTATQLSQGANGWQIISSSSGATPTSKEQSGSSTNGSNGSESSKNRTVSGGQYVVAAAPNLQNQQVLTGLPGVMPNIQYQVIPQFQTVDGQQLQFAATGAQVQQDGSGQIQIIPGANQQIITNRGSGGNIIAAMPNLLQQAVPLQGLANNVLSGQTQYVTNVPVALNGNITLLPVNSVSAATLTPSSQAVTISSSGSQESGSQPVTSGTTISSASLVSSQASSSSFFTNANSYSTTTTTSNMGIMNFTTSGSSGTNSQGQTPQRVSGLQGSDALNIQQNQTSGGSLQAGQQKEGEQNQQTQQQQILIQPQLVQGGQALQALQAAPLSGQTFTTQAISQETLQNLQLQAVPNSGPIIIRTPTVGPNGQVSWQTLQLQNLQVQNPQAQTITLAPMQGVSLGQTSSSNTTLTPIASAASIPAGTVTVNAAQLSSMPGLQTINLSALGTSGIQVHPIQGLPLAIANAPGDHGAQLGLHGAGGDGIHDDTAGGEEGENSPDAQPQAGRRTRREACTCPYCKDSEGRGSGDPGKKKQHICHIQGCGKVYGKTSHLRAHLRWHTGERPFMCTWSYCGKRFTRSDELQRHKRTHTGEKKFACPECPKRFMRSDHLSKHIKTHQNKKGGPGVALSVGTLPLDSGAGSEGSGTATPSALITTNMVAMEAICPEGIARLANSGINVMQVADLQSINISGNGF
UniProt Q9BVQ7, sequence (Q9BVQ7 whole entry): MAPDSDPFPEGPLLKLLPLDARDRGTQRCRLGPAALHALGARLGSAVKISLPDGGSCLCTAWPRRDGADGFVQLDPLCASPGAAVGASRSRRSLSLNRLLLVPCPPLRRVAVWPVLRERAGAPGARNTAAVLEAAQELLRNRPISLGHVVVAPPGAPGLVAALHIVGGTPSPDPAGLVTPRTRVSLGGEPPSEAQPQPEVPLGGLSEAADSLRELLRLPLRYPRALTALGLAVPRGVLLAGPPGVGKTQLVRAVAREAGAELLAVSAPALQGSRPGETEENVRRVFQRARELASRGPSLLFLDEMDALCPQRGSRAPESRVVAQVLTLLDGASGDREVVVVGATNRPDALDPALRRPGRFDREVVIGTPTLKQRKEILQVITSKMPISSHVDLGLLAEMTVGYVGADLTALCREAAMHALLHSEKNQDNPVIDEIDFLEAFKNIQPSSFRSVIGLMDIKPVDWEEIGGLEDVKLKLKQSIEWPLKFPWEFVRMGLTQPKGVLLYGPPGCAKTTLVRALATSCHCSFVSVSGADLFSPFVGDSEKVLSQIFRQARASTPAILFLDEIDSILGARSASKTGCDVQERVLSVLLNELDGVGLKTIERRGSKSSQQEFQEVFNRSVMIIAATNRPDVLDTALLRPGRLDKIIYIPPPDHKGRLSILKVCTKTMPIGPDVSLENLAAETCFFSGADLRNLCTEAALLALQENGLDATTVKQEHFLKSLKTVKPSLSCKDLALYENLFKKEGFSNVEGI
UniProt Q9HD15, sequence (Q9HD15 whole entry): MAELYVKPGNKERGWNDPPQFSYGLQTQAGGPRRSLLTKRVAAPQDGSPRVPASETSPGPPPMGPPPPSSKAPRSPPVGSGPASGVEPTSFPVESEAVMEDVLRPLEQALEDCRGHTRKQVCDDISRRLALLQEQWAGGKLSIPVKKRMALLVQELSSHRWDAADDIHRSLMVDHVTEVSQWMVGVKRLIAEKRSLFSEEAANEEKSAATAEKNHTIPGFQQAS

Row | Target | thermal stability z-score (lipoamide; [1]) | thermal stability z-score (lipoamide; arsenate co-treatment: none) | thermal stability z-score (potassium arsenate)
1 | SOD2 (UniProt P04179) | 0.512 | 0.261 | 0.195
2 | SOGA1 (UniProt O94964) | 0.0497 | -0.0282 | -0.097
3 | SORBS3 (UniProt O60504) | -0.117 | 0.0779 | -0.323
4 | SORCS2 (UniProt Q96PQ0) | -0.156 | -0.45 | -0.319
5 | SORD (UniProt Q00796) | 0.301 | -0.192 | -0.608
6 | SORT1 (UniProt Q99523) | -0.0906 | 0.945 | 1.41
7 | SOS1 (UniProt Q07889) | 0.324 | 0.304 | 0.167
8 | SOWAHC (UniProt Q53LP3) | 0.277 | 0.343 | 0.0878
9 | SOX13 (UniProt Q9UN79) | -0.169 | 0.00372 | -0.618
10 | SP1 (UniProt P08047) | -0.0425 | -0.199 | 0.789
11 | SP3 (UniProt Q02447) | -0.177 | -0.427 | -0.584
12 | SP100 (UniProt P23497) | 3.43 | 0.96 | 4.5
13 | SPAG1 (UniProt Q07617) | 0.0825 | 0.0754 | -0.401
14 | SPAG5 (UniProt Q96R06) | -0.791 | -0.122 | -0.162
15 | SPAG7 (UniProt O75391) | 0.493 | 0.212 | -0.214
16 | SPAG9 (UniProt O60271) | 0.012 | -0.0736 | 0.732
17 | SPAST (UniProt Q9UBP0) | -0.179 | 0.818 | 0.604
18 | SPATA5 (UniProt Q8NB90) | 0.389 | 0.148 | -0.0295
19 | SPATA5L1 (UniProt Q9BVQ7) | 0.441 | 0.172 | 0.487
20 | SPATA20 (UniProt Q8TB22) | 0.172 | 0.136 | -0.121
21 | SPATS2 (UniProt Q86XZ4) | -0.0725 | 0.644 | -0.00843
22 | SPATS2L (UniProt Q9NUQ6) | 0.296 | 0.638 | -0.0325
23 | SPC24 (UniProt Q8NBT2) | -0.122 | 0.106 | -0.0105
24 | SPC25 (UniProt Q9HBM1) | 0.989 | -0.483 | 0.191
25 | SPCS2 (UniProt Q15005) | -0.33 | -0.411 | -0.373
26 | SPCS3 (UniProt P61009) | -1.66 | -1.75 | 0.879
27 | SPDL1 (UniProt Q96EA4) | 0.746 | 0.706 | 1.2
28 | SPECC1 (UniProt Q5M775) | 0.0376 | 0.504 | 1.48

Row | Target | thermal stability z-score (lipoamide; [1]) | thermal stability z-score (lipoamide; arsenate co-treatment: none) | thermal stability z-score (potassium arsenate)
29 | SPECC1L (UniProt Q69YQ0) | 1.12 | 1.43 | 1.47
30 | SPG7 (UniProt Q9UQ90) | -0.126 | -0.0687 | 0.156
31 | SPG20 (UniProt Q8N0X7) | 0.715 | 0.609 | 0.193
32 | SPG21 (UniProt Q9NZD8) | -0.161 | 0.136 | 0.634
33 | SPHK1 (UniProt Q9NYA1) | 0.328 | 0.0728 | -0.0222
34 | SPIN1 (UniProt Q9Y657) | 0.0956 | 0.212 | -0.0902
35 | SPNS1 (UniProt Q9H2V7) | -0.826 | 0.677 | 0.547
36 | SPR (UniProt P35270) | 1.28 | 0.634 | 1.36
37 | SPRYD4 (UniProt Q8WW59) | 2.66 | 2.54 | 1.75
38 | SPRYD7 (UniProt Q5W111) | 0.397 | 0.0188 | -0.339
39 | SPTAN1 (UniProt Q13813) | 0.768 | 0.506 | -1.44
40 | SPTBN1 (UniProt Q01082) | 0.502 | 0.309 | -1.61
41 | SPTLC1 (UniProt O15269) | -0.481 | -0.72 | 0.833
42 | SPTLC2 (UniProt O15270) | -0.0734 | -0.585 | -0.25
43 | SQLE (UniProt Q14534) | 0.647 | 1.27 | 0.26
44 | SQRDL (UniProt Q9Y6N5) | -0.541 | -1.81 | -1.36
45 | SQSTM1 (UniProt Q13501) | -0.226 | -0.109 | 0.758
46 | SRA1 (UniProt Q9HD15) | 0.911 | 0.998 | 0.51
47 | SREBF1 (UniProt P36956) | -0.33 | 0.0707 | 0.119
48 | SREK1 (UniProt Q8WXA9) | 0.0164 | 0.0581 | 0.00931
49 | SRFBP1 (UniProt Q8NEF9) | -0.0373 | -0.0723 | 0.756
50 | SRGAP1 (UniProt Q7Z6B7) | -0.0604 | -0.163 | -0.0461
51 | SRGAP2 (UniProt O75044) | -0.272 | -0.287 | 0.309
52 | SRGN (UniProt P10124) | -0.234 | 0.0347 | -0.673
53 | SRI (UniProt P30626) | 1.28 | 0.78 | 0.177
54 | SRM (UniProt P19623) | -0.392 | -0.0266 | -0.141
55 | SRP9 (UniProt P49458) | 0.432 | 0.761 | -0.335
